Tested on: not listed separately
Assay: log P by HPLC on reversed-phase column (C18), EEC Directive 79/831 Annex V.A8
Assay type: physicochemical
Details: Method A: 40° C., 0.1% aqueous formic acid and acetonitrile
Method: In table 1, the log P values were determined in accordance with EEC Directive 79/831 Annex V.A8 by HPLC (High Performance Liquid Chromatography) on a reversed-phase column (C18), using the methods described below:
Method A: temperature: 40° C.; mobile phases: 0.1% aqueous formic acid and acetonitrile; linear gradient from 10% acetonitrile to 95% acetonitrile;
Method B: temperature: 40° C.; mobile phases: 0.001 molar ammonium acetate solution in water and acetonitrile; linear gradient from 10% acetonitrile to 95% acetonitrile.
Calibration was carried out using unbranched alkan-2-ones (comprising 3 to 16 carbon atoms) with known log P values (determination of the log P values by the retention times using linear interpolation between two successive alkanones). lambda-max-values were determined using UV-spectra from 200 nm to 400 nm and the peak values of the chromatographic signals.

Row | SMILES | logP
1 | C[Si](C)(O)c1cc(F)ccc1Oc1cnc2c(Cl)cccc2c1 [I.018] | 3.50
2 | Cc1nc2ccccc2nc1Oc1cccc(F)c1[Si](C)(C)O [I.109] | 3.25
3 | C[Si](C)(C)c1ccccc1Cc1cnc2ccccc2c1 [I.012] | 4.06
4 | C[Si](C)(c1cccs1)c1ccccc1Cc1cnc2ccccc2c1 [I.015] | 4.04
5 | Cc1nc2ccccc2cc1Oc1cccc(F)c1[Si](C)(C)C [I.046] | 5.08
6 | Cc1nc2c(F)c(F)ccc2cc1Oc1cccc(F)c1[Si](C)(C)c1ccccc1 [I.028] | 6.01
7 | C[Si](C)(C)c1c(F)cccc1Oc1cnc2c(F)cnn2c1 [I.128] | 4.61
8 | CC(C)[Si](C)(C)c1ccccc1Oc1cnc2ccccc2n1 [I.075] | 5.91
9 | Cc1nc2c(F)c(F)ccc2nc1Oc1ccc(F)cc1[Si](C)(C)O [I.098] | 3.63
10 | Cc1nc2c(F)c(F)ccc2nc1Oc1ccc(F)cc1[Si](C)(C)C [I.100] | 5.57
11 | C[Si](C)(C)c1c(F)cccc1Oc1cc2ccccc2nc1O [I.059] | 3.85
12 | Cc1nc2ccccc2cc1Oc1cccc(F)c1[Si](C)(C)O [I.049] | 2.41
13 | C[Si]1(c2ccccc2)c2c(F)cccc2Oc2c(Cl)nc3ccccc3c21 (stereo not drawn) [6-chloro-11-fluoro-12-methyl-12-phenyl-12H-[1,4]benz-oxasilino[2,3-c]quinoline] | 5.94
14 | Cc1nc2ccccc2nc1Oc1cccc(F)c1[Si](C)(C)c1cccs1 [I.113] | 5.51
15 | C=Cc1ccc(Oc2cc3ccccc3nc2C)c([Si](C)(C)C)c1 [I.137] | 5.51
16 | Cc1nc2ccccc2cc1Oc1ccc(Cl)cc1[Si](C)(C)C [I.134] | 5.68
17 | Cc1nc2c(F)c(F)ccc2nc1Oc1c(Cl)cccc1[Si](C)(C)C [I.106] | 6.07
18 | CC(C)C[Si](C)(C)c1ccccc1Oc1cnc2ccccc2n1 [I.073] | 6.33
19 | C[Si](C)(C)c1c(F)cccc1C(O)c1cnc2ccccc2c1 (stereo not drawn) [I.133] | 4.16
20 | C[Si](C)(C)c1c(F)cccc1[S+]([O-])c1cnc2ccccc2c1 (stereo not drawn) [I.132] | 3.63
21 | C[Si](C)(C)c1ccccc1Nc1cnc2ccccc2c1 [I.011] | 3.46

Row | SMILES | logP
22 | CC[Si](C)(C)c1c(F)cccc1Oc1cc2ccccc2[n+]([O-])c1C [I.057] | 4.54
23 | Cc1nc2c(F)c(F)ccc2nc1Oc1cc(C#N)ccc1[Si](C)(C)O [I.093] | 3.39
24 | C[Si](C)(O)c1ccccc1Oc1cnc2c(F)cnn2c1 [I.126] | 2.50
25 | C[Si](C)(C)c1ccccc1Oc1cnc2nccn2c1 [I.124] | 2.78
26 | C[Si](C)(O)c1ccccc1Oc1cnc2nccn2c1 [I.125] | 2.10
27 | C[Si](C)(C)c1c(F)cccc1C(=O)c1cnc2ccccc2c1 [I.017] | 4.49
28 | C[Si](C)(C)c1ccccc1Oc1cnc2ccccc2n1 [I.068] | 5.05
29 | CC[Si](C)(C)c1c(F)cccc1Oc1cc2ccccc2nc1C [I.052] | 5.62
30 | Cc1nc2ccccc2cc1Oc1ccc(C2CC2)cc1[Si](C)(C)C [I.136] | 5.68
31 | Cc1nc2c(F)c(F)ccc2nc1Oc1ccc(Cl)cc1[Si](C)(C)C [I.101] | 6.11
32 | CC[Si](C)(C)c1c(F)cccc1Oc1cnc2ccccc2c1 [I.005] | 5.47
33 | Cc1nc2ccccc2nc1Oc1ccccc1[Si](C)(C)O [I.112] | 3.01
34 | Cc1ccc([Si](C)(C)O)c(Oc2nc3ccc(F)c(F)c3nc2C)c1 [I.096] | 3.76
35 | C[Si](C)(C)c1c(F)cccc1Oc1cnc2c(F)c(F)ccc2c1 [I.021] | 5.32
36 | Cc1nc2ccccc2cc1Oc1ccc(-c2ccccc2)cc1[Si](C)(C)C [I.135] | 6.27
37 | Cc1nc2c(F)c(F)ccc2nc1Oc1cccc(OC(F)(F)F)c1[Si](C)(C)O [I.095] | 4.34
38 | CC[Si](C)(C)c1ccccc1Oc1cnc2c(F)c(F)ccc2n1 [I.077] | 5.62
39 | Cc1nc2c(F)c(F)ccc2cc1Oc1cccc(F)c1[Si](C)(C)c1cccs1 [I.030] | 5.65
40 | COc1cccc(Oc2cc3ccc(F)c(F)c3nc2C)c1[Si](C)(C)O [I.033] | 3.69
41 | Cc1nc2c(F)c(F)ccc2nc1Oc1cccc(F)c1[Si](C)(C)O [I.085] | 3.67
42 | Cc1nc2c(F)c(F)ccc2nc1Oc1c(F)cccc1[Si](C)(C)O [I.089] | 3.62

Same assay, conditions: logP Method A

Row | SMILES | logP
43 | Cc1nc2ccccc2nc1Oc1cccc(F)c1Br [IIb.17] | 4.11
44 | Cc1nc2c(F)c(F)ccc2nc1Oc1cccc(C#N)c1Br [IIb.22] | 3.83
45 | Nc1ccccc1Nc1cnc2ccccc2c1 [IVa.01] | 1.28
46 | Nc1c(F)cccc1Oc1cnc2c(F)c(F)ccc2c1 [IVa.04] | 3.02
47 | COc1cccc(Oc2nc3ccc(F)c(F)c3nc2C)c1Br [IIb.13] | 4.19
48 | Cc1nc2c(F)c(F)ccc2nc1Oc1cccc(Cl)c1Br [IIb.18] | 4.82
49 | C[Si](C)(c1ccccc1)c1ccccc1CBr [XIa.03] | 5.46
50 | Cc1nc2ccccc2cc1Oc1ccccc1[N+](=O)[O-] [Va.08] | 2.64
51 | Cc1nc2ccccc2cc1Oc1cccc(F)c1[N+](=O)[O-] [Va.06] | 3.15

Same assay, conditions: logP Method B

Row | SMILES | logP
52 | CC[Si](C)(C)c1ccccc1O [IXa.04] | 3.90

Same assay, conditions: reversed-phase HPLC column (C18), Method A: 40° C., 0.1% aqueous formic acid and acetonitrile

Row | SMILES | chromatographic logP
53 | C[Si](C)(C)c1ccccc1Oc1cnc2ccccc2c1 [I.001, 3-[2-(trimethylsilyl)phenoxy]quinoline] | 5.17
54 | C[Si]1(c2c(F)cccc2Oc2cnc3ccccc3c2)CCC1 [I.008, 3-[3-fluoro-2-(1-methylsiletan-1-yl)phenoxy]quinoline] | 5.39
55 | Cc1nc2ccccc2cc1Oc1ccccc1[Si](C)(C)C [I.047, 2-methyl-3-[2-(trimethylsilyl)phenoxy]quinoline] | 4.85
56 | C[Si](C)(c1ccc(Cl)cc1)c1ccccc1Cc1cnc2ccccc2c1 [I.014, 3-{2-[(4-chlorophenyl)(dimethyl)silyl]benzyl}quinoline] | 4.74
57 | Fc1cccc(Oc2cnc3c(F)c(F)ccc3c2)c1Br [IIa.15, 3-(2-bromo-3-fluorophenoxy)-7,8-difluoroquinoline] | 3.9
58 | Cc1nc2c(F)c(F)ccc2cc1Oc1ccccc1[Si](C)(C)O [I.026, {2-[(7,8-difluoro-2-methylquinolin-3-yl)oxy]phenyl}(dimethyl)silanol] | 3.51
59 | Cc1nc2ccccc2cc1Oc1cccc(Cl)c1Br [IIa.21, 3-(2-bromo-3-chlorophenoxy)-2-methylquinoline] | 3.99
60 | Cc1nc2c(F)c(F)ccc2cc1Oc1ccccc1[N+](=O)[O-] [Va.04, 7,8-difluoro-2-methyl-3-(2-nitrophenoxy)quinoline] | 3.37
61 | C[SiH](c1ccccc1)c1c(F)cccc1Oc1cc2ccccc2nc1Cl (stereo not drawn) [I.062, 2-chloro-3-{3-fluoro-2-[methyl(phenyl)silyl]phenoxy}quinoline] | 5.78
62 | Cc1nc2c(F)c(F)ccc2cc1Oc1cccc(F)c1Br [IIa.16, 3-(2-bromo-3-fluorophenoxy)-7,8-difluoro-2-methylquinoline] | 4.29
63 | Cc1nc2c(F)c(F)ccc2cc1Oc1ccccc1Br [IIa.07, 3-(2-bromophenoxy)-7,8-difluoro-2-methylquinoline] | 4.25
64 | Fc1cccc(Oc2cnc3ccccc3c2)c1I [IIa.01, 3-(3-fluoro-2-iodophenoxy)quinoline] | 3.71
65 | Cc1nc2c(F)c(F)ccc2cc1Oc1ccccc1N [IVa.05, 2-[(7,8-difluoro-2-methylquinolin-3-yl)oxy]aniline] | 2.99
66 | Cc1nc2c(F)c(F)ccc2cc1Oc1c(F)cccc1Br [IIa.09, 3-(2-bromo-6-fluorophenoxy)-7,8-difluoro-2-methylquinoline] | 4.25
67 | Cc1nc2c(F)c(F)ccc2cc1Oc1ccc(F)cc1Br [IIa.12, 3-(2-bromo-4-fluorophenoxy)-7,8-difluoro-2-methylquinoline] | 4.25
68 | Fc1cccc(Nc2cc3ccccc3nc2C(F)F)c1Br [IIa.22, N-(2-bromo-3-fluorophenyl)-2-(difluoromethyl)quinolin-3-amine] | 4.34
69 | Cc1nc2c(F)c(F)ccc2cc1Oc1cc(F)ccc1Br [IIa.10, 3-(2-bromo-5-fluorophenoxy)-7,8-difluoro-2-methylquinoline] | 4.34
70 | Cc1c(Oc2cccc(F)c2Br)cnc2ccccc12 [IIa.17, 3-(2-bromo-3-fluorophenoxy)-4-methylquinoline] | 3.89

Same assay, conditions: reversed-phase HPLC column (C18), logP Method A

Row | SMILES | chromatographic logP
71 | Cc1nc2c(F)c(F)ccc2cc1Oc1ccccc1[N+](=O)[O-] [Va.04, 7,8-difluoro-2-methyl-3-(2-nitrophenoxy)quinoline] | 3.42
72 | Cc1nc2c(F)c(F)ccc2cc1Oc1ccccc1N [IVa.05, 2-[(7,8-difluoro-2-methylquinolin-3-yl)oxy]aniline] | 2.99
73 | Cc1nc2ccccc2cc1Oc1cccc(CCCl)c1Br [II.08A] | 3.99
74 | O=Cc1cccc(Oc2cnc3ccccc3c2)c1I [II.01A] | 3.29
75 | O=Cc1cccc(Oc2cnc3c(F)c(F)ccc3n2)c1Br [II.01B] | 3.48

Tested on: Pyricularia oryzae
Assay: microbe, parasite or virus in culture
Assay type: cell-based
Details: 1 ppm; inhibition of fungal growth, liquid culture, 5 days incubation

Row | SMILES | Efficacy
76 | C[Si](C)(C)c1cc(F)ccc1Oc1ccnc2c(Cl)cccc12 [CMP2, 8-chloro-4-[4-fluoro-2-(trimethylsilyl)phenoxy]quinoline, reference compound] | 0%

Same assay, conditions: 4 ppm of active ingredient; 5 days incubation

Row | SMILES | efficacy (inhibition of fungal growth)
77 | C[Si](C)(C)c1cc(F)ccc1Oc1ccnc2c(Cl)cccc12 [CMP2, 8-chloro-4-[4-fluoro-2-(trimethylsilyl)phenoxy]quinoline, reference compound] | much lower efficacy

Same assay, conditions: 4 ppm; inhibition of fungal growth, liquid culture, 5 days incubation

Row | SMILES | Efficacy
78 | C[Si](C)(C)c1cc(F)ccc1Oc1ccnc2c(Cl)cccc12 [CMP2, 8-chloro-4-[4-fluoro-2-(trimethylsilyl)phenoxy]quinoline, reference compound] | 46%

Same assay, conditions: 20 ppm; inhibition of fungal growth, liquid culture, 5 days incubation

Row | SMILES | Efficacy
79 | C[Si](C)(C)c1cc(F)ccc1Oc1ccnc2c(Cl)cccc12 [CMP2, 8-chloro-4-[4-fluoro-2-(trimethylsilyl)phenoxy]quinoline, reference compound] | 93%

Same assay, conditions: Pyricularia oryzae, 120 h, read-out: efficacy (inhibition of fungal growth)

Row | SMILES | inhibition at 20 ppm
80 | C[Si](C)(C)c1ccccc1Oc1cnc2ccccc2c1 [I.001, 3-[2-(trimethylsilyl)phenoxy]quinoline] | 90 to 100%
81 | C[Si]1(c2c(F)cccc2Oc2cnc3ccccc3c2)CCC1 [I.008, 3-[3-fluoro-2-(1-methylsiletan-1-yl)phenoxy]quinoline] | 90 to 100%
82 | Cc1nc2ccccc2cc1Oc1ccccc1[Si](C)(C)C [I.047, 2-methyl-3-[2-(trimethylsilyl)phenoxy]quinoline] | 90 to 100%
83 | Cc1nc2c(F)c(F)ccc2cc1Oc1ccccc1[Si](C)(C)O [I.026, {2-[(7,8-difluoro-2-methylquinolin-3-yl)oxy]phenyl}(dimethyl)silanol] | 90 to 100%
84 | C[SiH](c1ccccc1)c1c(F)cccc1Oc1cc2ccccc2nc1Cl (stereo not drawn) [I.062, 2-chloro-3-{3-fluoro-2-[methyl(phenyl)silyl]phenoxy}quinoline] | 90 to 100%
